We go through six molecules from US4528293A, “Heteroaromatic derivatives of iminomethyl piperidines and use to inhibit gastric acid secretion” (McNeilab, Inc., priority 1983, dated 1985).

This assay deals with gastric acid secretion. As to the kind of experiment: Acute gastric fistula rat test: inhibition of gastric acid secretion (Total Acid Output). It counts as in vivo, Female Sprague-Dawley rats. Particulars: read-out: ED50 Acute Gastric Fistula (dose required to produce an average of 50% inhibition in Total Acid Output versus controls). On the procedure: The compounds of the invention of formula (I) are useful for the inhibition of gastric acid secretion as measured by the following test. Female Sprague-Dawley rats are fasted twenty-four hours before testing and are given water ad libidum while being kept in individual cages. On the day of testing, the rats are weighed within a range of ±20 grams.
Surgery is carried out under light ether anesthesia. As soon as the rat is anesthetized its teeth are removed and a mid-line incision is made on the abdomen about 11/2 inches in length and the stomach and duodenum are exposed. If at this point the stomach is filled with food or fecal material, the rat is discarded. If the condition of the stomach is acceptable, a purse string stitch is placed on the fundic portion of the stomach with a suture, taking care not to pierce any blood vessels in the area. A small nick is then made into the stomach in the center of the purse string, and a cannula, consisting of a small vinyl tube with a flange on one end, is put into the stomach, and the purse string stitch is closed tightly around the flange. The test compound is administered either intraduodonally (i.d.) immediately after surgery or orally (p.o.) one hour prior to surgery at doses generally ranging from about 0.25 to about 160 mg/kg in a volume of 0.5 ml/100 grams rat. Control rats receive the test vehicle, 0.5% aqueous hydroxypropyl methyl cellulose.
After surgery and, in the case of i.d. administration, after administration of the test compound, the abdominal wall and skin are closed simultaneously with three or four 18 mm wound clips and a collecting tube is placed on the cannula. Each rat is then placed in a box in which a longitudinal slit has been made to allow the cannula to hang freely and to allow the rat to move about unencumbered. After the rat has been allowed to stabilize for thirty minutes, the collection tube on the cannula is discarded and replaced with a clean tube to receive the gastric juice. Collections are made one hour after stabilization.
The sample of gastric contents collected is drained into a centrifuge tube and centrifuged to pack down the sediment. The volume is read and a 1 ml aliquot of the supernatant is put into a beaker containing 20 ml of distilled water and is titrated to pH 7 using 0.01N sodium hydroxide. Results are determined for Volume, Titratable Acid and Total Acid Output, where Volume equals total ml of gastric juice minus sediment; Titratable Acid (meq/1) equals amount of 0.01N sodium hydroxide needed to titrate the acid to pH 7; and Total Acid Output equals Titratable Acid times Volume. Results are reported as the ED50 dose (mg/kg required to produce an average of 50% inhibition in Total Acid Output versus controls in the animals tested for a particular compound) and as percent inhibition.

Setting [1] is: po, one hour prior to surgery, 1 h collection after 30 min stabilization.

Like-named read-outs stand apart in the source and are kept apart here.

By ED50 is commonly meant the dose at which the effect has come halfway, by size or by number of responders. In the case of `C(=NCCc1c[nH]c2ccccc12)N1CCC(C(c2ccccc2)c2ccccc2)CC1` [Example 2, N-(4-Diphenylmethyl-1-piperidinyl)-methylene-3-1H-indoleethaneamine monohydroiodide], for the setting “ip, compound administered intraperitoneally (footnote *)”, the ED50 turned out to be 4.34 mg/kg. Consider `C(=NCc1cccs1)N1CCC(C(c2ccccc2)c2ccccc2)CC1` [Example 4, 4-(Diphenylmethyl)-1-[(2-thiophenemethyl)imino]methylpiperidine (E)-2-butenedioate (1:1) hydrate (2:1)], for which the 50% effective dose (ED50) under setting [1] came to 6.59 mg/kg.

As for `C(=NCc1ccco1)N1CCC(C(c2ccccc2)c2ccccc2)CC1` [Example 1, 4-(Diphenylmethyl)-1-[(2-furanylmethyl)iminomethyl]piperidine (E)-2-butenedioate (1:1) hydrate (5:2)], under setting [1], the ED50 was 6.91 mg/kg. On the same count and under the same terms, under `Cn1cccc1CCN=CN1CCC(C(c2ccccc2)c2ccccc2)CC1.O=C(O)/C=C/C(=O)O` [Example 3, 4-Diphenylmethyl-1-[N-[(1-methyl-1H-pyrrol-2-yl)ethyl]-iminomethyl]piperidine (E)-2-butenedioate] stands 3.61 mg/kg; under `C(=NCCc1ccccn1)N1CCC(C(c2ccccc2)c2ccccc2)CC1` [Example 5, 4-(Diphenylmethyl-1[[2-(2-pyridinyl)ethyl]iminomethyl]piperidine (E)-2-butenedioate (1:1)], 3.47 mg/kg; under `C(=NCCc1ccncc1)N1CCC(C(c2ccccc2)c2ccccc2)CC1` [Example 6, 4-Diphenylmethyl-1-[[2-(4-pyridinyl)ethyl]iminomethyl]piperidine 2-naphthalenesulfonate hydrate (4:4:3)], 18.8 mg/kg.
